Blank lines part the entries; values can stand above or below the compound they belong to.
What was measured:
[1] = Displacement of [125I]TZDM from amyloid beta (1 to 42) aggregates after 3 hrs by gamma counting
[2] = Binding affinity to amyloid beta (1-42) aggregates
Brain [3] = assay: Drug uptake in mouse brain after 2 mins; assay type: ADME, tissue-based; conditions: in vivo
[4] = Partition coefficient, log P of the compound; assay type: physicochemical; conditions: octanol/water
Brain [5] = assay: Ratio of drug uptake in mouse brain after 2 mins to 30 mins; assay type: ADME, tissue-based; conditions: in vivo
Brain [6] = assay: Ratio of drug uptake in mouse brain after 2 mins to 60 mins; assay type: ADME, tissue-based; conditions: in vivo
Cynomolgus monkey [7] = assay: Drug uptake in cynomolgus monkey brain after 1.5 mins; assay type: ADME, organism-based, Macaca fascicularis; conditions: in vivo, 0.025 h
Cynomolgus monkey [8] = assay: Drug uptake in cynomolgus monkey brain after 55 mins; assay type: ADME, organism-based, Macaca fascicularis; conditions: in vivo

- Ki [2]: 0.8 nM
Compound: CN(C)c1ccc(-c2nc3ccc([125I])cc3o2)cc1

- Ki [1]: 39.7 nM
Compound: Oc1cc(O)cc(/C=C/c2ccc(F)cc2)c1

- Drug uptake (Cynomolgus monkey [7]): 5.2 %ID
- Drug uptake (Cynomolgus monkey [8]): 0.5 %ID
Compound: CNc1ccc(-c2cc3cc(O)ccc3o2)c([18F])n1 [FLUTAFURANOL F 18]

- Ki [2]: 0.74 nM
Compound: CNc1ccc(-c2nc3ccc(O)cc3s2)cc1[18F] [FLUTEMETAMOL F 18]

Further lines, the compound ahead of its results:

Compound: COc1cc(/C=C/c2ccc(OCCCF)cc2)cc(OC)c1
- Ki [1]: 0.49 nM

Compound: CN(C)c1ccc(/C=C/c2cn(CCF)nn2)cc1
- Ki [1]: 12.8 nM

Compound: CN(C)c1ccc(-c2cn3cc([125I])ccc3n2)cc1
- Drug uptake (Brain [3]): 2.88 %ID

Compound: CNc1ccc(/C=C/c2ccc(OCCOCCOCC[18F])cc2)cc1 [FLORBETABEN F18]
- logP [4]: 2.41
- Ki [2]: 2.22 nM
- Drug uptake (Brain [3]): 7.77 % ID/g
- Ratio (Brain [5]): 4.89

Compound: CNc1ccc(/C=C/c2ccc(OCCOCCOCC[18F])nc2)cc1 [FLORBETAPIR F 18]
- logP [4]: 2.41
- Ki [2]: 2.87 nM
- Ratio (Brain [6]): 3.9

From ChEMBL document CHEMBL2157886, “Synthesis and evaluation of ¹⁸F-labeled styryltriazole and resveratrol derivatives for β-amyloid plaque imaging” (J Med Chem, 2012)
